Test results reported in publication PMC10022191, “Safety, tolerability, pharmacokinetics, and antiviral activity of the novel core protein allosteric modulator ZM-H1505R (Canocapavir) in chronic hepatitis B patients: a randomized multiple-dose escalation trial” (BMC Medicine, 2023).
Entries after “also recorded” stand apart in the source; their conditions may differ.

Test: phase 1b trial: adverse reactions and tolerability in CHB patients
Format: in vivo, human
Description: This was a randomized, open-label, placebo-controlled, phase 1b study (Clinical Trial Registration Number: NCT05470829; Chinese Clinical Trial Registration Number: CTR20210686), which was conducted at the Phase I Clinical Research Center, The First Hospital of Jilin University (Jilin, China), during the period from May to November of 2021. In order to minimize the safety risk of Canocapavir, an adaptive ascending dosing strategy was adopted for Canocapavir treatment in this study. The second and third assigned doses were initiated only after the safety data from the previous dose was reviewed and determined to be safe by the Principal Investigator and the Sponsor on day 8 postdosing (post drug administration days). Canocapavir was administered at the Clinical Research Center on days 1–8 and day 28 and at home on days 9–27 under the same conditions (fixed administration time and fasting condition). Patients were required to visit the facility for follow-up on days 15, 22, 27, 43 ± 1, and 57 ± 2 postdosing. The study protocol and informed consent forms were prepared according to the principles of the Declaration of Helsinki. The study protocol was approved by the Institutional Review Board of the First Hospital of Jilin University (approval number: 20Y201-006). All recruited patients provided written informed consent before participating in any study-related procedures.
A total of 30 CHB patients were recruited in this study and were randomly assigned into three cohorts (N = 10, each). In these three cohorts, the patients (in a ratio of 4:1) received 50, 100, or 200 mg of Canocapavir or placebo once a day for 28 consecutive days under fasting conditions, followed by a 28-day follow-up (Fig. 1). The patients, care providers, and those assessing outcomes were blinded during the study. This random process was completed in an electronic data capture system, and the details are shown in Additional file 1.
To examine possible adverse events (AEs) and adverse reactions (an adverse event is definitely, probably, or possibly related to the drug) in this study, the recruited patients underwent regular clinical laboratory testing, 12-lead electrocardiograms, examination of vital signs, abdominal ultrasound, and regular physical examinations, using the baseline data as a control. The severity of AEs and laboratory abnormalities were graded according to the Common Terminology Criteria for Adverse Events (CTCAE), version 5.0, which defines toxicity criteria. The AEs were coded using the Medical Dictionary for Regulatory Activities, version 24.1 (McLean, VA, USA).

O=C1CO[C@H](c2cn(-c3ccc(Br)cc3)nc2-c2ccc(F)cc2)N1CCc1ccc2[nH]c(=O)[nH]c2c1 [Canocapavir]
Increased aspartate aminotransferase, cases (100 mg q.d., 28 days): 2 case | Increased aspartate aminotransferase, grade I, number of subjects (100 mg q.d., 28 days): 2 n | Increased aspartate aminotransferase, grade I, percent of subjects (100 mg q.d., 28 days): 25.00% | Increased aspartate aminotransferase, grade II, number of subjects (100 mg q.d., 28 days): 0 n | Increased aspartate aminotransferase, grade II, percent of subjects (100 mg q.d., 28 days): 0% | Increased aspartate aminotransferase, number of subjects (%) (100 mg q.d., 28 days): 2 (25) n (%) | Increased bilirubin, cases (100 mg q.d., 28 days): 0 case | Increased bilirubin, grade I, number of subjects (100 mg q.d., 28 days): 0 n | Increased bilirubin, grade I, percent of subjects (100 mg q.d., 28 days): 0% | Increased bilirubin, number of subjects (%) (100 mg q.d., 28 days): 0 (0) n (%) | Increased creatinine, cases (100 mg q.d., 28 days): 0 case | Increased creatinine, grade I, number of subjects (100 mg q.d., 28 days): 0 n | Increased creatinine, grade I, percent of subjects (100 mg q.d., 28 days): 0% | Increased creatinine, number of subjects (%) (100 mg q.d., 28 days): 0 (0) n (%) | Increased γ-glutamyltransferase, cases (100 mg q.d., 28 days): 1 case | Increased γ-glutamyltransferase, grade I, number of subjects (100 mg q.d., 28 days): 1 n | Increased γ-glutamyltransferase, grade I, percent of subjects (100 mg q.d., 28 days): 12.50% | Increased γ-glutamyltransferase, number of subjects (%) (100 mg q.d., 28 days): 1 (12.5) n (%) | Rash, cases (100 mg q.d., 28 days): 1 case | Rash, grade I, number of subjects (100 mg q.d., 28 days): 1 n | Rash, grade I, percent of subjects (100 mg q.d., 28 days): 12.50% | Rash, number of subjects (%) (100 mg q.d., 28 days): 1 (12.5) n (%) | Total adverse reactions, cases (100 mg q.d., 28 days): 10 case | Total adverse reactions, number of subjects (%) (100 mg q.d., 28 days): 5 (62.5) n (%) | maximum ALT level, patient E3010 (100 mg q.d., day 15, baseline 144.9 U/L): 385.4 U/L | Adverse reactions, grade I, number of subjects (200 mg q.d., 28 days): 3 n | Adverse reactions, grade I, percent of subjects (200 mg q.d., 28 days): 37.50% | Adverse reactions, grade II, number of subjects (200 mg q.d., 28 days): 0 n | Adverse reactions, grade II, percent of subjects (200 mg q.d., 28 days): 0% | Adverse reactions, grade III, number of subjects (200 mg q.d., 28 days): 1 n | Adverse reactions, grade III, percent of subjects (200 mg q.d., 28 days): 12.50% | Adverse reactions, total (all grades), number of subjects (200 mg q.d., 28 days): 4 n | Adverse reactions, total (all grades), percent of subjects (200 mg q.d., 28 days): 50.0% | Decreased neutrophil count, cases (200 mg q.d., 28 days): 0 case | Decreased neutrophil count, grade II, number of subjects (200 mg q.d., 28 days): 0 n | Decreased neutrophil count, grade II, percent of subjects (200 mg q.d., 28 days): 0% | Decreased neutrophil count, grade III, number of subjects (200 mg q.d., 28 days): 0 n | Decreased neutrophil count, grade III, percent of subjects (200 mg q.d., 28 days): 0% | Decreased neutrophil count, number of subjects (%) (200 mg q.d., 28 days): 0 (0) n (%) | Decreased platelet count, cases (200 mg q.d., 28 days): 0 case | Decreased platelet count, grade I, number of subjects (200 mg q.d., 28 days): 0 n | Decreased platelet count, grade I, percent of subjects (200 mg q.d., 28 days): 0% | Decreased platelet count, number of subjects (%) (200 mg q.d., 28 days): 0 (0) n (%) | Decreased serum phosphorus, cases (200 mg q.d., 28 days): 1 case | Decreased serum phosphorus, grade I, number of subjects (200 mg q.d., 28 days): 1 n | Decreased serum phosphorus, grade I, percent of subjects (200 mg q.d., 28 days): 12.50% | Decreased serum phosphorus, number of subjects (%) (200 mg q.d., 28 days): 1 (12.5) n (%) | Decreased white blood cell count, cases (200 mg q.d., 28 days): 0 case | Decreased white blood cell count, grade II, number of subjects (200 mg q.d., 28 days): 0 n | Decreased white blood cell count, grade II, percent of subjects (200 mg q.d., 28 days): 0% | Decreased white blood cell count, number of subjects (%) (200 mg q.d., 28 days): 0 (0) n (%) | Hypertriglyceridemia, cases (200 mg q.d., 28 days): 2 case | Hypertriglyceridemia, grade III, percent of subjects (200 mg q.d., 28 days): 12.50% | Hypertriglyceridemia, number of subjects (%) (200 mg q.d., 28 days): 1 (12.5) n (%) | Increased alanine aminotransferase, cases (200 mg q.d., 28 days): 3 case | Increased alanine aminotransferase, grade I, number of subjects (200 mg q.d., 28 days): 3 n | Increased alanine aminotransferase, grade I, percent of subjects (200 mg q.d., 28 days): 37.50% | Increased alanine aminotransferase, grade II, number of subjects (200 mg q.d., 28 days): 0 n | Increased alanine aminotransferase, grade II, percent of subjects (200 mg q.d., 28 days): 0% | Increased alanine aminotransferase, number of subjects (%) (200 mg q.d., 28 days): 3 (37.5) n (%) | Increased aspartate aminotransferase, cases (200 mg q.d., 28 days): 1 case | Increased aspartate aminotransferase, grade I, number of subjects (200 mg q.d., 28 days): 1 n | Increased aspartate aminotransferase, grade I, percent of subjects (200 mg q.d., 28 days): 12.50% | Increased aspartate aminotransferase, grade II, number of subjects (200 mg q.d., 28 days): 0 n | Increased aspartate aminotransferase, grade II, percent of subjects (200 mg q.d., 28 days): 0% | Increased aspartate aminotransferase, number of subjects (%) (200 mg q.d., 28 days): 1 (12.5) n (%) | Increased bilirubin, cases (200 mg q.d., 28 days): 1 case | Increased bilirubin, grade I, number of subjects (200 mg q.d., 28 days): 1 n | Increased bilirubin, grade I, percent of subjects (200 mg q.d., 28 days): 12.50% | Increased bilirubin, number of subjects (%) (200 mg q.d., 28 days): 1 (12.5) n (%) | Increased creatinine, cases (200 mg q.d., 28 days): 0 case | Increased creatinine, grade I, number of subjects (200 mg q.d., 28 days): 0 n | Increased creatinine, grade I, percent of subjects (200 mg q.d., 28 days): 0% | Increased creatinine, number of subjects (%) (200 mg q.d., 28 days): 0 (0) n (%) | Increased γ-glutamyltransferase, cases (200 mg q.d., 28 days): 0 case | Increased γ-glutamyltransferase, grade I, number of subjects (200 mg q.d., 28 days): 0 n | Increased γ-glutamyltransferase, grade I, percent of subjects (200 mg q.d., 28 days): 0% | Increased γ-glutamyltransferase, number of subjects (%) (200 mg q.d., 28 days): 0 (0) n (%) | Rash, cases (200 mg q.d., 28 days): 0 case | Rash, grade I, number of subjects (200 mg q.d., 28 days): 0 n | Rash, grade I, percent of subjects (200 mg q.d., 28 days): 0% | Rash, number of subjects (%) (200 mg q.d., 28 days): 0 (0) n (%) | Total adverse reactions, cases (200 mg q.d., 28 days): 8 case | Total adverse reactions, number of subjects (%) (200 mg q.d., 28 days): 4 (50) n (%) | relation of incidence of adverse reactions to dose (50–200 mg q.d.): not significantly correlated to its increased dose | safety and tolerability (50–200 mg q.d., 28 days): well tolerated; also recorded: safe and tolerated | serious adverse events (50–200 mg q.d., 28 days): no serious adverse events; also recorded: No serious AE | withdrawal from the study (50–200 mg q.d., 28 days): no patients withdrew | patients with a grade I adverse reaction (elevation of ALT or AST) (across dose cohorts): 12.5–37.5% | cases of AEs in the Canocapavir cohort (all doses, 24 patients): 38 cases | cases of adverse reactions in the Canocapavir cohort (all doses, 24 patients): 24 cases | patients with AEs in the Canocapavir cohort (all doses, 24 patients): 75% | patients with adverse reactions in the Canocapavir cohort (all doses, 24 patients): 50%
